These results are taken from US11331290B2, “Niclosamide for the treatment of cancer metastasis” (Max-Delbrück-Centrum für Molekulare Medizin in der …, priority 2011, dated 2022).

Assay [1] has as its system HAB-92 wt cells. The assay can be described thus: Boyden chamber transwell migration assay. The settings on record: 1 μM, 24 h, statistically not significant. Format: cell-based, human. Here is the method:
(§1) HCT116, SW620, LS174T, SW480 and DLD-1 cells were used in cell migration and invasion analysis performed with Boyden chamber assay. 400 μL containing 2.5×10^5 cells were seeded into each transwell chamber with filter membranes of 12.0 μm pore size (Millipore, Schwalbach, Germany). For invasion filter membranes were coated with 50 μL Matrigel (diluted 1:3 in RPMI-1640; BD Biosciences) 10 minutes before cells were seeded. Fresh medium (600 μL) were added to the bottom chamber and cells were allowed to attach to the insets for 15 hours. Both chambers were treated with 1 μM niclosamide or the respective amount of DMSO and incubated at 37° C. and 5% CO2 in a humidified incubator for 24 hours. Afterwards insets were removed and cells that had migrated through the membrane to the lower chamber were trypsinized and counted in a Neubauer chamber (LO-Laboroptik, Bad Homburg, Germany). Each well was counted ten times. Each migration or invasion experiment was performed in duplicate. The average number of migrated or invaded cells was determined for at least three independent experiments.
(§2) For WNT pathway analysis the following cells were applied: HCT116 cells (heterozygous for gain-of-function-mutated CTNNB1; wt/mut), HAB-68mut cells (deletion mutant of HCT116, expressing only gain-of-function-mutated CTNNB1: −/mut) and HAB-92 wt cells (deletion mutant of HCT116, expressing only wild-type CTNNB1: wt/−). (A) CTNNB1 genotype dependent effect of niclosamide on LEF/TCF transcription factor reporter gene expression. Cells were treated with 1 μM niclosamide for 24 hours. Reporter gene expression was determined by luciferase activity measurement. For each condition and cell line TOPflash expression was normalized to FOPflash expression. (B) CTNNB1 genotype dependent effect of niclosamide on S100A4 expression. Cells were treated with 1 μM niclosamide for 24 hours. S100A4 expression was analyzed by qRT-PCR and immunoblot. (C) CTNNB1 genotype dependent effect of niclosamide on migration rates. Cells were treated with 1 μM niclosamide for 24 hours and cell migration was determined by Boyden chamber assay. Data represents mean±SE of at least three independent experiments. Differences were analyzed by Student's t test (n.s.; not statistically significant). (D) Nuclear localization of CTNNB1 under niclosamide treatment. Nuclear extracts of HCT116 cells treated with the indicated concentrations of niclosamide for 18 hours were analyzed by immunoblot. (E) Effect of niclosamide on CTNNB1/TCF complex. Nuclear extracts of HCT116 cells treated with the indicated concentrations of niclosamide for 18 hours were analyzed by EMSA for the TCF-binding site of the S100A4 promoter. Supershift was performed by addition of a monoclonal anti-CTNNB1 antibody. […]

The subject of assay [2] is HAB-68mut cells. The assay is described as follows: Boyden chamber transwell migration assay. The settings on record: 1 μM, 24 h. The format is cell-based, human. The procedure: as §1, §2

Structures are written as SMILES.

For the molecule `O=C(Nc1ccc([N+](=O)[O-])cc1Cl)c1cc(Cl)ccc1O` [niclosamide, 2′,5-dichloro-4′-nitrosalicylanilide], the figures for the “migration rate, mean (relative to HCT116 control)” value in assay [1] (control 0.36) and in assay [2] (control 1.30) were 0.32 and 0.39, respectively. Besides, the figures for the “migration rate, mean difference control vs niclosamide” value in assay [1] and in assay [2] were 0.04 and 0.91, respectively.
